According to ChEMBL document CHEMBL2424549, “Design, synthesis and biological evaluation of 4-(1-(4(sulphanilamide)phenyl)-3-(methyl)-1H-pyrazol-5-yl)dine urea and N-acyl derivatives as a soluble epoxide hydrolase inhibitors” (Med Chem Res, 2013):

Legend:
[1] = biological target: T1, Bifunctional epoxide hydrolase 2 (Homo sapiens) (UniProt P34913); assay: Inhibition of human recombinant soluble epoxide hydrolase using (3-phenyl-oxiranyl)-acetic acid cyano-(6-methoxy-naphtalen-2-yl)-methyl ester as substrate at 100 uM incubated for 15 mins prior to substrate addition by fluorescence assay
T1 sequence (whole entry): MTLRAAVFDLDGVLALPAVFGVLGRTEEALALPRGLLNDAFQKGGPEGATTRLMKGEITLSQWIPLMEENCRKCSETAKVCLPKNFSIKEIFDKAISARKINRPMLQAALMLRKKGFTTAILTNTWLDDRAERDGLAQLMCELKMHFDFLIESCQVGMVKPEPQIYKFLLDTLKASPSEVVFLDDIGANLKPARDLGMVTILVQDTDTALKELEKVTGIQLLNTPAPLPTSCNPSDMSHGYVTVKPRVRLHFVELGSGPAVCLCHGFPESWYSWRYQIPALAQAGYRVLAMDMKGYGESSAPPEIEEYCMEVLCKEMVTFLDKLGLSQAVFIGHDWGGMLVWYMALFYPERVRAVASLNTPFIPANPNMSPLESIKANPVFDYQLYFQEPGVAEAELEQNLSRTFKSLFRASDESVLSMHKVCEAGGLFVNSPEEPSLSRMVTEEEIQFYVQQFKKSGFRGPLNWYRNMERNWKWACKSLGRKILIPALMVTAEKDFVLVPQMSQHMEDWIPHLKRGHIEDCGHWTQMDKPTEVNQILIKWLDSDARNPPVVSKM

[2] = biological target: T2, Bifunctional epoxide hydrolase 2 (Homo sapiens, UniProt P34913); assay: Inhibition of human recombinant soluble epoxide hydrolase using (3-phenyl-oxiranyl)-acetic acid cyano-(6-methoxy-naphtalen-2-yl)-methyl ester as substrate incubated for 15 mins prior to substrate addition by fluorescence assay
T2 sequence (P34913 whole entry): T1 sequence (whole entry)

Q: With Cc1cc(C2CCN(C(=O)NC3CCCCC3)CC2)n(-c2ccc(S(N)(=O)=O)cc2)n1 as the compound, how does the inhibition [1] read?
A: 99%

Q: And the IC50 [2]?
A: 0.275 µM

Q: Which inhibition [1] does the source give for CCNC(=O)N1CCC(c2cc(C)nn2-c2ccc(S(N)(=O)=O)cc2)CC1 here?
A: 23.3%

Q: How did the inhibition [1] turn out when Cc1cc(C2CCN(C(=O)c3ccc([N+](=O)[O-])cc3)CC2)n(-c2ccc(S(C)(=O)=O)cc2)n1 was run?
A: 54%

Q: Which inhibition [1] does the source give for Cc1ccc(C(=O)N2CCC(c3cc(C)nn3-c3ccc(S(C)(=O)=O)cc3)CC2)cc1 here?
A: 42.1%

Q: With Cc1cc(C2CCN(C(=O)c3ccccc3)CC2)n(-c2ccc(S(N)(=O)=O)cc2)n1 as the compound, how does the inhibition [1] read?
A: 57.2%

Q: For COc1ccc(C(=O)N2CCC(c3cc(C)nn3-c3ccc(S(N)(=O)=O)cc3)CC2)cc1, which inhibition [1] is on record?
A: 32.9%

Q: Which inhibition [1] does the source give for Cc1cc(C2CCN(C(=O)NCc3ccccc3)CC2)n(-c2ccc(S(N)(=O)=O)cc2)n1 here?
A: 69.2%

Q: Which results are given for CCCCNC(=O)N1CCC(c2cc(C)nn2-c2ccc(S(N)(=O)=O)cc2)CC1?
A: inhibition [1]: 82%; IC50 [2]: 10.1 µM

Q: For Cc1cc(C2CCN(C(=O)NC(C)C)CC2)n(-c2ccc(S(N)(=O)=O)cc2)n1, which inhibition [1] is on record?
A: 105%

Q: What about the IC50 [2] of the same compound?
A: 22.3 µM

Q: For Cc1cc(C2CCN(C(=O)NCCc3ccccc3)CC2)n(-c2ccc(S(C)(=O)=O)cc2)n1, which inhibition [1] is on record?
A: 54%

Q: Cc1cc(C2CCN(C(=O)c3ccc([N+](=O)[O-])cc3)CC2)n(-c2ccc(S(N)(=O)=O)cc2)n1 was tested. Which inhibition [1] did it give?
A: 0%

Q: For CCCC(=O)N1CCC(c2cc(C)nn2-c2ccc(S(C)(=O)=O)cc2)CC1, which inhibition [1] is on record?
A: 54%

Q: How did the inhibition [1] turn out when Cc1cc(C2CCN(C(=O)Nc3ccc(Cl)cc3)CC2)n(-c2ccc(S(C)(=O)=O)cc2)n1 was run?
A: 54%

Q: How did the inhibition [1] turn out when Cc1ccc(NC(=O)N2CCC(c3cc(C)nn3-c3ccc(S(C)(=O)=O)cc3)CC2)cc1 was run?
A: 54%

Q: For Cc1cc(C2CCN(C(=O)c3ccc(Cl)cc3)CC2)n(-c2ccc(S(C)(=O)=O)cc2)n1, which inhibition [1] is on record?
A: 54%

Q: For CCCNC(=O)N1CCC(c2cc(C)nn2-c2ccc(S(N)(=O)=O)cc2)CC1, which inhibition [1] is on record?
A: 68.6%

Q: With CCCC(=O)N1CCC(c2cc(C)nn2-c2ccc(S(N)(=O)=O)cc2)CC1 as the compound, how does the inhibition [1] read?
A: 68.7%

Q: Which inhibition [1] does the source give for Cc1cc(C2CCN(C(=O)Nc3ccccc3)CC2)n(-c2ccc(S(C)(=O)=O)cc2)n1 here?
A: 89.9%

Q: And the IC50 [2]?
A: 0.22 µM

Q: For Cc1cc(C2CCN(C(=O)Nc3ccccc3Cl)CC2)n(-c2ccc(S(C)(=O)=O)cc2)n1, which inhibition [1] is on record?
A: 54%

Q: How did the inhibition [1] turn out when Cc1cc(C2CCN(C(=O)Nc3ccccc3)CC2)n(-c2ccc(S(N)(=O)=O)cc2)n1 was run?
A: 92.7%

Q: What about the IC50 [2] of the same compound?
A: 16.7 µM

Q: How did the inhibition [1] turn out when CCCNC(=O)N1CCC(c2cc(C)nn2-c2ccc(S(C)(=O)=O)cc2)CC1 was run?
A: 54%

Q: How did the inhibition [1] turn out when Cc1ccc(C(=O)N2CCC(c3cc(C)nn3-c3ccc(S(N)(=O)=O)cc3)CC2)cc1 was run?
A: 0%

Q: With Cc1cc(C2CCN(C(=O)Nc3ccccc3Cl)CC2)n(-c2ccc(S(N)(=O)=O)cc2)n1 as the compound, how does the inhibition [1] read?
A: 54%

Q: Which inhibition [1] does the source give for Cc1cc(C2CCN(C(=O)NC3CCCCC3)CC2)n(-c2ccc(S(C)(=O)=O)cc2)n1 here?
A: 114%

Q: What about the IC50 [2] of the same compound?
A: 3.47 µM

Q: With CCCCNC(=O)N1CCC(c2cc(C)nn2-c2ccc(S(C)(=O)=O)cc2)CC1 as the compound, how does the inhibition [1] read?
A: 99.5%

Q: And the IC50 [2]?
A: 0.269 µM

Q: Which inhibition [1] does the source give for Cc1cc(C2CCN(C(=O)c3ccccc3)CC2)n(-c2ccc(S(C)(=O)=O)cc2)n1 here?
A: 54%

Q: Cc1cc(C2CCN(C(=O)c3ccc(Cl)cc3)CC2)n(-c2ccc(S(N)(=O)=O)cc2)n1 was tested. Which inhibition [1] did it give?
A: 32.5%

Q: For COc1ccc(C(=O)N2CCC(c3cc(C)nn3-c3ccc(S(C)(=O)=O)cc3)CC2)cc1, which inhibition [1] is on record?
A: 15.2%

Q: How did the inhibition [1] turn out when CCc1ccccc1NC(=O)N1CCC(c2cc(C)nn2-c2ccc(S(C)(=O)=O)cc2)CC1 was run?
A: 54%

Q: Which results are given for Cc1cc(C2CCN(C(=O)NC(C)C)CC2)n(-c2ccc(S(C)(=O)=O)cc2)n1?
A: inhibition [1]: 45.4%; IC50 [2]: 13.6 µM

Q: How did the inhibition [1] turn out when CCNC(=O)N1CCC(c2cc(C)nn2-c2ccc(S(C)(=O)=O)cc2)CC1 was run?
A: 54%

Q: Which inhibition [1] does the source give for Cc1ccc(NC(=O)N2CCC(c3cc(C)nn3-c3ccc(S(N)(=O)=O)cc3)CC2)cc1 here?
A: 105%

Q: What about the IC50 [2] of the same compound?
A: 0.224 µM

Q: Which inhibition [1] does the source give for Cc1cc(C2CCN(C(=O)NCc3ccccc3)CC2)n(-c2ccc(S(C)(=O)=O)cc2)n1 here?
A: 94.2%
